# Measured values taken from patent US12319672B2, “Alpha-D-galactopyranoside derivatives” (Idorsia Pharmaceuticals Ltd, priority 2019, dated 2025).
# Tests used:
# human Gal-1 (hGal-1) [1] = target: human Gal-1 (hGal-1) (Homo sapiens, UniProt P09382); experiment: Competitive binding assay: binding of biotinylated hGal-1 to microplate-adsorbed asialofetuin (ASF); conditions: Activities on hGal-1; mean values of several measurements
# Summary of the method: (§1)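 For hGal-1, a variant with all six cysteines replaced by serines is preferred. Either galectin, biotinylated at 300-1000 ng/mL, competes with compound for microplate-bound ASF over 3 h at 4° C; peroxidase/ABTS detection gives IC50, averaged.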
# human Gal-3 (hGal-3) = human Gal-3 (hGal-3) (Homo sapiens (Human), UniProt P17931); experiment: Competitive binding assay: binding of biotinylated hGal-3 to microplate-adsorbed asialofetuin (ASF); conditions: Activity on hGal-3; mean values of several measurements
# Chain of human Gal-3 (hGal-3) (P17931 whole entry): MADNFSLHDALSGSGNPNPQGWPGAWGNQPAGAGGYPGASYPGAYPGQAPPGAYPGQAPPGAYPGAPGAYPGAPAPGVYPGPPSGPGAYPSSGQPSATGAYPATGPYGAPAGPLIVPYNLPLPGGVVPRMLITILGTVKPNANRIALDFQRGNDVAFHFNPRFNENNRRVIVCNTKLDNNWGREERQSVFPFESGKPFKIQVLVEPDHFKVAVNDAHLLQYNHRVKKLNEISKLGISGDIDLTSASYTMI
# Summary of the method: as §1
# human Gal-1 (hGal-1) [2] = experiment: Competitive binding assay: binding of biotinylated hGal-1 to microplate-adsorbed asialofetuin (ASF); conditions: Activities on hGal-1; mean values of several measurements
# Summary of the method: as §1
# Chain of human Gal-1 (hGal-1) (P09382 2-135 limits assumed): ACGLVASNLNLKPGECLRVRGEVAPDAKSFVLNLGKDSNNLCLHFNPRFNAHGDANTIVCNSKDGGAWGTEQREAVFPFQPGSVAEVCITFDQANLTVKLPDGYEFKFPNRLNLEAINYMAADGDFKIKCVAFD
# Chain of human Gal-1 (hGal-1) (Homo sapiens, UniProt P09382) (P09382 2-135 limits assumed): as above
IC50 (human Gal-3 (hGal-3)),IC50 (human Gal-1 (hGal-1) [2]),SMILES,IC50 (human Gal-1 (hGal-1) [1])
110 nM,1970 nM,"CO[C@@H]1[C@@H](n2cc(-c3cc(F)c(F)c(F)c3)nn2)[C@@H](O)[C@@H](CO)O[C@@H]1Cc1cc(C2CCN(C(=O)OC(C)(C)C)CC2)sn1 [Example 6.02, tert-butyl 4-(3-(((2R,3R,4S,5R,6R)-5-hydroxy-6-(hydroxymethyl)-3-methoxy-4-(4-(3,4,5-trifluorophenyl)-1H-1,2,3-triazol-1-yl)tetrahydro-2H-pyran-2-yl)methyl)isothiazol-5-yl)piperidine-1-carboxylate]",–
120 nM,1510 nM,"CO[C@@H]1[C@@H](n2cc(-c3cc(F)c(F)c(F)c3)nn2)[C@@H](O)[C@@H](CO)O[C@@H]1Cc1cc(C2CCN(C(=O)C(C)(C)C)CC2)on1 [Example 3.34, 1-(4-(3-(((2R,3R,4S,5R,6R)-5-hydroxy-6-(hydroxymethyl)-3-methoxy-4-(4-(3,4,5-trifluorophenyl)-1H-1,2,3-triazol-1-yl)tetrahydro-2H-pyran-2-yl)methyl)isoxazol-5-yl)piperidin-1-yl)-2,2-dimethylpropan-1-one]",–
83 nM,1340 nM,CO[C@@H]1[C@@H](n2cc(-c3cc(F)c(F)c(F)c3)nn2)[C@@H](O)[C@@H](CO)O[C@@H]1Cc1cc(C(C)(C)C)no1 [Ex 1.206],–
250 nM,2240 nM,COc1cc(-c2cn([C@H]3[C@@H](O)[C@@H](CO)O[C@H](CC4CC(C5CCN(C(=O)OC(C)(C)C)CC5)=NO4)[C@@H]3O)nn2)ccc1Cl (some centres unmarked) [Ex 1.110],–

# More lines, now with the values behind:
SMILES,IC50 (human Gal-3 (hGal-3)),IC50 (human Gal-1 (hGal-1) [2]),IC50 (human Gal-1 (hGal-1) [1])
"CC(C)(C)OC(=O)N1CCC(c2cc(C[C@H]3O[C@H](CO)[C@H](O)[C@H](n4cc(-c5cc(F)c(F)c(F)c5)nn4)[C@H]3OCC(F)F)no2)CC1 [Example 2.25, tert-butyl 4-(3-(((2R,3R,4S,5R,6R)-3-(2,2-difluoroethoxy)-5-hydroxy-6-(hydroxymethyl)-4-(4-(3,4,5-trifluorophenyl)-1H-1,2,3-triazol-1-yl)tetrahydro-2H-pyran-2-yl)methyl)issoxazole-5-yl)piperidine-1-carboxylate]",170 nM,–,1280 nM
OC[C@H]1O[C@H](Cc2cc(C3(O)CCCC3)on2)[C@H](O)[C@@H](n2cc(-c3cc(F)c(F)c(F)c3)nn2)[C@H]1O [Ex 1.58],490 nM,13600 nM,–
"O=c1cc(C2=NO[C@H](C[C@H]3O[C@H](CO)[C@H](O)[C@H](n4cc(-c5cc(F)c(F)c(F)c5)nn4)[C@H]3O)C2)cc[nH]1 [Example 2.05, 4-((S)-5-(((2R,3R,4R,5R,6R)-3,5-dihydroxy-6-(hydroxymethyl)-4-(4-(3,4,5-trifluorophenyl)-1H-1,2,3-triazol-1-yl)tetrahydro-2H-pyran-2-yl)methyl)-4,5-dihydroisoxazol-3-yl)pyridin-2(1H)-one]",190 nM,390 nM,–
